The values that follow come from patent publication US20210179577A1, “AROMATIC SULFONAMIDE DERIVATIVES FOR THE TREATMENT OF ISCHEMIC STROKE” (Bayer Aktiengesellschaft, priority 2017, published 2021).

The structures appear in SMILES notation.

Holding throughout (type): cell-based
One test has as its target T1, hP2X4 (Homo sapiens, UniProt Q99571).
T1 construct: expressed in transfected cells; host or cells: HEK-293 mito-Photina, clone 2a/4
T1 sequence (Q99571 1-388): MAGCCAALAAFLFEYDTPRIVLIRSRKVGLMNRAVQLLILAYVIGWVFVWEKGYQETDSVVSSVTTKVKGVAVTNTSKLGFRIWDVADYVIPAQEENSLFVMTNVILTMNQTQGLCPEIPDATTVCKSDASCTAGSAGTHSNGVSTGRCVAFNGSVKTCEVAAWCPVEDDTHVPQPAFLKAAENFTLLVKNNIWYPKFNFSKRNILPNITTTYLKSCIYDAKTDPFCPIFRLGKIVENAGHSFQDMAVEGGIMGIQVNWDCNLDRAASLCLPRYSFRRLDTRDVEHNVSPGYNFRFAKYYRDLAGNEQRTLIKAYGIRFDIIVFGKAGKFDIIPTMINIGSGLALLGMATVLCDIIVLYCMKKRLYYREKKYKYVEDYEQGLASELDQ
The test is described as follows: Human P2X4 HEK Cell Electrophysiology Assay B (QPatch). The settings on record: ATP 5 microM, -90 mV; read-out: Human P2X4 HEK Cells (QPatch Electrophysiology) avg IC50. The procedure: Cell culture conditions: HEK-293 mito-Photina pcDNA3(neo-)/pPURO N/pcDNA3_P2RX4, clone 2a/4 (HEK-293 mito-Photina/hP2RX4) cells were cultured in EMEM Minimum Essential Medium Eagle with Earl's salts Balanced Salt Solution (BioWhittaker cat. BE12-125F) supplemented with 5 mL of 200 mM Ultraglutaminel (BioWhittaker cat. BE17-605E/U1), 5 mL of 100× Penicillin/Streptomycin (BioWhittaker cat. DE17-602E; final concentration 1%), 4 mL of 50 mg/mL G418 (Sigma cat. G8168-100 mL; final concentration 400 μg/mL), 10 μL of 10 mg/mL Puromicin (InvivoGen cat. ant-pr-1; final concentration 0.2 μg/mL) and 50 mL of Fetal Bovine Serum (Sigma cat. F7524; final concentration 10%).
Experimentalprotocol: HEK-293 cell lines are seeded 72 or 96 hours before experiment, at a concentration of 5 or 2.5 million cells, respectively onto a T225 flask. Just before the experiments cells are washed twice with D-PBS w/o Ca2+/Mg2+(Euroclone cat. ECB4004L) and detached from the flask with trypsin-EDTA (Sigma, cat. T4174 diluted 1/10). Cells are then re-suspended in the suspension solution: 25 mL EX-CELL ACF CHO medium (Sigma, cat. C5467); 0.625 mL HEPES (BioWhittaker, cat. BE17-737E); 0.25 mL of 100× Penicillin/Streptomycin (BioWhittaker, cat. DE17-602E), 0.1 mL of Soybean Trypsin Inhibitor 10 mg/mL (Sigma, cat. T6522) and placed on the QPatch 16X.
Compound preparation and storage: Compound stock solutions (10 mM; 100% DMSO; stored at −20° C.) were used. Fresh solutions from stock (1 or 3 mM, 100% DMSO) were prepared just before the experiments (0.1% final DMSO concentration).
Patch clamp analysis with QPatch16X (FIG. 1): Standard whole-cell voltage clamp experiments are performed at room temperature using the multihole technology.
For the voltage clamp experiments on hP2X4, data are sampled at 2 KHz. After establishment of the seal and the passage in the whole cell configuration, the cells are held at −90 mV and the hP2X4 current is evoked by the agonist in the absence (vehicle period, i.e. 0.1% DMSO) or in the presence of the compound under investigation at increasing concentrations; see the application protocol in FIG. 1.
Output: the maximum inward current induced by the agonist (ATP 5 microM).
The intracellular solution contained (mM) 135 CsF, 10 NaCl, 1 EGTA, 10 HEPES (pH 7.2 with CsOH) whereas the extracellular solution (mM) 145 NaCl, 4 KCl, 0.5 MgCl2, 1 CaCl2, […], 10 Glucose (pH 7.4 with NaOH).
For data collection, the Sophion software was used and the analysis was performed off-line using Excel and GraphPad Prism.
When possible, i.e. when the % of inhibition with the highest concentration tested was more than 50%, the dose-response curves data were fitted with the following equation:
[X is log of concentration; Y is normalized response (100% down to 0%, decreasing as X increases); Log IC50 same log units as X; HillSlope is unitless slope factor or hill slope]
In general terms: The patch-clamp technique gives a direct electrical read-out from membranes.

For test [1], the target named is T2, human P2X4 (Homo sapiens, UniProt Q99571).
T2 sequence (Q99571 1-388): T1 sequence (Q99571 1-388)
The test is described as follows: Human P2X4 HEK Cell FLIPR Assay. The settings on record: HEK293 cells, agonist Bz-ATP at EC80. Also on record: expressed in transfected cells; host or cells: HEK293. The procedure: HEK293 cells stably expressing human P2X4 were plated in poly-D-lysine-coated 384-well plates at a seeding density of 30000 cells/well and incubated overnight. P2X4 function was assessed by measuring intracellular calcium changes using the calcium-chelating dye Fluo8-AM (Molecular Devices) on a fluorescent imaging plate reader (FLEX/FLIPR station; Molecular Devices). On the day of the assay, the medium was removed and the cells were incubated for 30 min at 37° C. and 5% CO2 in 30 μL of dye buffer (Hank's balanced salt solution, 10 mM HEPES, 1.8 mM CaCl2, 1 mM MgCl2, 2 mM probenecid, 5 mM D-glucose monohydrate, 5 μM Fluo8-AM, pH=7.4). Compounds diluted in probenecid buffer (Hank's balanced salt solution, 10 mM HEPES, 1.8 mM CaCl2, 1 mM MgCl2, 2 mM probenecid, 5 mM D-glucose monohydrate, pH=7.4) were added in a volume of 10 μL and allowed to incubate for 30 min at room temperature. The final assay DMSO concentration was 0.5%. The agonist, Bz-ATP (Tocris), was added in a volume of 10 μL at a concentration representing the EC80 value. The EC80 value of Bz-ATP was determined each assay day prior to compound profiling. The fluorescence was measured for an interval of 120 sec at 2 sec intervals. The excitation and emission wavelengths used to monitor fluorescence were 470-495 nm and 515-575 nm, respectively. The data was analyzed based on the increase in peak relative fluorescence units (RFU) compared to the basal fluorescence and the data was normalized to the agonist control. The compounds were tested in triplicates per plate and mean values were plotted in Excel XL-Fit to determine IC50 values, percentage of maximal inhibition and the Hill coefficients.

In the next test the target is T3, mouse P2X4 (Mus musculus, UniProt Q9JJX6).
T3 construct: expressed in transfected cells; host or cells: 1321N1 astrocytoma cells
T3 sequence (Q9JJX6 1-388): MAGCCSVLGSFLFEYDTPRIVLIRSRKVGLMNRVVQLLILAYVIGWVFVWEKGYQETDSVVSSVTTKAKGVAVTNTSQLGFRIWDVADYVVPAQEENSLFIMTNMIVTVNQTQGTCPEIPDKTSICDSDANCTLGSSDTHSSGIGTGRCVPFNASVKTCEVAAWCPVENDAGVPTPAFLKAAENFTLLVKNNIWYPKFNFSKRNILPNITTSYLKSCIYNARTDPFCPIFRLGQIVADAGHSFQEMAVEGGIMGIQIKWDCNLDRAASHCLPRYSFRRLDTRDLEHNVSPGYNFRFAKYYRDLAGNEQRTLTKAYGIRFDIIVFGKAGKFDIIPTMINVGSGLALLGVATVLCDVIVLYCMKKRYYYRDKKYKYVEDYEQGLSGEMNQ
Put plainly: FLIPR assay, mouse P2X4 1321N1 Astrocytoma Cells. Particulars: 1321N1 Astrocytoma cells. How it is done:
(§1) 1321N1 Astrocytoma cells stably expressing human P2X4 or rat P2X4 or mouse P2X4 were plated in Collagen ITO-treated microplate at a seeding density of 10000 cells/well and incubated overnight. P2X4 function was assessed by measuring intracellular calcium changes using the calcium-chelating dye Fluo8-AM (Molecular Devices) on a fluorescent imaging plate reader (FLEX/FLIPR station; Molecular Devices). On the day of the assay, the medium was removed and the cells were incubated for 30 min at […] and 5% CO2 in 30 μL of dye buffer (Hank's balanced salt solution, 10 mM HEPES, 1.8 mM CaCl2, 1 mM MgCl2, 2 mM probenecid, 5 mM D-glucose monohydrate, 5 μM Fluo8-AM, pH=7.4). Compounds diluted in probenecid buffer (Hank's balanced salt solution, 10 mM HEPES, 1.8 mM CaCl2, 1 mM MgCl2, 2 mM probenecid, 5 mM D-glucose monohydrate, pH=7.4) were added in a volume of 10 μL and allowed to incubate for 30 min at room temperature. The final assay DMSO concentration was 0.25%. The agonist, Mg-ATP (Sigma), was added in a volume of 10 μL at a concentration representing the EC80 value. EC80 was determined to be 0.5 μM for human and mouse P2X4 and 5 μM for rat P2X4. The fluorescence was measured for an interval of 120 sec at 2 sec intervals. The excitation and emission wavelengths used to monitor fluorescence were 470-495 nm and 515-575 nm, respectively. The data was analyzed based on the increase in peak relative fluorescence units (RFU) compared to the basal fluorescence and the data was normalized to the agonist control. The compounds were tested in triplicates per plate and mean values were plotted in Excel XLFit to determine IC50 values, percentage of maximal inhibition and the Hill coefficients.

In another test the target is T4, rat P2X4 (Rattus norvegicus, UniProt P51577).
T4 construct: expressed in transfected cells; host or cells: 1321N1 astrocytoma cells
T4 sequence (P51577 1-388): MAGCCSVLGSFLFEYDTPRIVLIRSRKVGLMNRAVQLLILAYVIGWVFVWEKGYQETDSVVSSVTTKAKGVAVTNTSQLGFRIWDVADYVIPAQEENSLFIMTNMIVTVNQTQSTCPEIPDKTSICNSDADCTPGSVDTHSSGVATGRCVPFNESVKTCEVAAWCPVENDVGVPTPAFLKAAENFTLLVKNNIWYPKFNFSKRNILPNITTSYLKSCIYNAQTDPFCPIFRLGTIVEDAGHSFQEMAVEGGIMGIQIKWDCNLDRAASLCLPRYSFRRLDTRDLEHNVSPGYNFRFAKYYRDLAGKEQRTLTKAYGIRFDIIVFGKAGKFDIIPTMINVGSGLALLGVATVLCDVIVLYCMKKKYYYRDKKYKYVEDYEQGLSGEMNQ
Put plainly: FLIPR assay, rat P2X4 1321N1 Astrocytoma Cells. The settings on record: 1321N1 Astrocytoma cells. The procedure:
as §1

Test [2] deals with T2, human P2X4. The test is described as follows: FLIPR assay, human P2X4 1321N1 Astrocytoma Cells. Particulars: 1321N1 Astrocytoma cells. Also on record: expressed in transfected cells. How it is done:
as §1

A word on the IC50: it is the midpoint of a concentration-inhibition curve. In the case of `NS(=O)(=O)c1cc(NC(=O)Cc2ccccc2Cl)ccc1-c1cnn(C2CC2)c1` [Example 349, 2-(2-Chlorophenyl)-N-[4-(1-cyclopropyl-1H-pyrazol-4-yl)-3-sulfamoylphenyl]acetamide], the IC50 at hP2X4 worked out at 0.117 µM; on human P2X4 [1], 0.037 µM.

As for `Cn1cc(-c2ccc(NC(=O)Cc3ccccc3Cl)cc2S(N)(=O)=O)cn1` [Example 360, 2-(2-Chlorophenyl)-N-[4-(1-methyl-1H-pyrazol-4-yl)-3-sulfamoylphenyl]acetamide], the IC50 at hP2X4 is 0.205 µM; at human P2X4 [1], 0.132 µM.

As for `NS(=O)(=O)c1cc(NC(=O)Cc2ccccc2F)cnc1-n1cc(C(F)(F)F)cn1` [Example 381, 2-(2-Fluorophenyl)-N-{5-sulfamoyl-6-[4-(trifluoromethyl)-1H-pyrazol-1-yl]pyridin-3-yl}acetamide], the 50% inhibitory concentration (IC50) at hP2X4 stood at 2.58 µM; on human P2X4 [1] it was 1.24 µM.

As for `Nc1ncnc2c1ncn2[C@@H]1O[C@H](COP(=O)(O)OP(=O)([O-])OP(=O)([O-])O)[C@@H](O)[C@H]1O.[Mg+2]` [Mg-ATP, reference compound], on mouse P2X4, the “EC80 of the agonist, mouse P2X4” value was found to be 0.5 µM. In addition, the “EC80 of the agonist, rat P2X4” value on rat P2X4 is 5 µM. Besides, the “EC80 of the agonist, human P2X4” value at human P2X4 [2] was found to be 0.5 µM.
